The text below walks through data of US6355608B1, “Detergent composition” (Shiseido Co., Ltd., priority 1998, dated 2002).

A short description of data set [1]: Lathering/foaming test: foam volume in a mixer with artificial dirt. To be noted: mixtures of N-methyl taurate laurate and sodium laurate, total 100 mmol/L; 400 ml with 2g artificial dirt, stirred 60 seconds. It is filed as physicochemical.
Data set [2] in a line: Foaming test with the shaking method. Format: physicochemical. As to the method: (§1) 0.5 wt % of each sample in Table 1 was dissolved in ion exchanged water with 70 ppm calcium chloride already dissolved in it. […] This solution was kept at 30° C. put into a Nessler's tube with an inner diameter of 3 cm and a height of 20 cm equipped with a sliding plug, and then tilted 90 degrees every second using a pendulum type shaker. After one minute, the sample was taken out of the shaker and the foam height, the foam film thickness and the foam density were measured. The time required for the foam height to be reduced to a half of the original height was also measured. The foam film thickness was measured by taking a photograph of the foam using a microscope at 100 times magnification and calculating the average value on the photograph. The foam density was obtained by sampling 10 ml of the foam and measuring its weight.
as §1, with “Table 6” for “Table 1”, “30° C.,” for “30° C.”
as §1, with “Table 11” for “Table 1”, “30° C.,” for “30° C.”
as §1, with “sample” for “sample in Table 1”, “C.,” for “C.”, “weight. […]” for “weight.”

Regarding `CNCCS(=O)(=O)O` [N-methyl taurine], in data set [1], the “Lathering/foaming ability (foam volume, FIG. 6)” value is reported as “good lathering/foaming ability”.

As for Magnesium laurate [Control sample 3], the “Foaming (in words)” value in data set [2] (pH 7) was “harder to foam”.

“Potassium hydroxylaurate [Control sample 2]”: the “Foaming (in words)” value in data set [2] (pH 7) is reported as “harder to foam”.

In the case of “Potassium hydroxylauryl ether carboxylate [Control sample 2]”, the “Foaming (in words)” value in data set [2] (pH 4) is “harder to foam”.

Turning to “Sodium hydroxylaurate [Control sample 1]”, in data set [2] (pH 7), the “Foaming (in words)” value is given as “harder to foam”.

Consider “Sodium hydroxylauryl ether carboxylate [Control sample 1]”, for which, in data set [2] (pH 4), the “Foaming (in words)” value is reported as “harder to foam”.
